This note sets out measurements from PubChem BioAssay (NCI).

Test systems include M14 melanoma; TK-10 renal; OVCAR-5 ovarian; MOLT-4 leukemia; SR leukemia; SW-620 colon; MDA-N; COLO 205 colon; T-47D breast; EKVX NSCLC; CAKI-1 renal; HOP-18 NSCLC; SNB-78 CNS; SN12K1 renal; P388 leukemia; DLD-1 colon; DMS 273 small cell lung; A549 NSCLC; M19-MEL melanoma; P388/ADR leukemia.
Common to all, as to assay: NCI tumour cell line growth inhibition, 48 h

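Cultured in 96-well plates, cells were exposed to test compound for 48 hours across five concentrations. TGI: total growth inhibition.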

For `O=C(N/N=C/c1cc(Br)cc(Br)c1[O-])c1ccccc1O.O=C(N/N=C/c1cc(Br)cc(Br)c1[O-])c1ccccc1O.[Cu+2]`, the TGI in the assay with M14 melanoma was found to be 1.05 µM; with TK-10 renal it was 1.58 µM; in the assay with OVCAR-5 ovarian, 2.03 µM; in the assay with MOLT-4 leukemia, 2.54 µM; in the assay with SR leukemia, 1.17 µM.

In the case of `CN1C2CCC1CC(C)(O)C2` (stereo not drawn), the TGI in the assay with M14 melanoma, in the assay on SW-620 colon, with TK-10 renal, in the assay on MDA-N, in the assay on COLO 205 colon and with T-47D breast was greater than 100 µM in each case. The TGI in the assay with MOLT-4 leukemia, in the assay with EKVX NSCLC and in the assay with SR leukemia was greater than 100 µM in each case.

Consider `Nc1ccn(C2OC(CO)C(O)C2O)c(=O)c1` (stereo not drawn), for which the TGI in the assay with CAKI-1 renal, in the assay on HOP-18 NSCLC, with SNB-78 CNS, in the assay with SW-620 colon, in the assay on SN12K1 renal and in the assay with P388 leukemia was greater than 625 µM in each case. Further, the TGI with COLO 205 colon, in the assay with DLD-1 colon, with DMS 273 small cell lung and in the assay with A549 NSCLC was greater than 625 µM throughout.

With `COc1ccc(C2COc3cc(O)c(O)cc3C2)cc1` (stereo not drawn), the TGI was 86.6 µM in the assay on M19-MEL melanoma; 52.9 µM in the assay with CAKI-1 renal; 110 µM with HOP-18 NSCLC; 268 µM in the assay with SNB-78 CNS; 8.53 µM with P388/ADR leukemia; 98.9 µM with SN12K1 renal. Also, the TGI in the assay with P388 leukemia was 18.7 µM; in the assay on COLO 205 colon it was 27.8 µM; in the assay on OVCAR-5 ovarian it was 264 µM; in the assay with MOLT-4 leukemia it was 24.6 µM; in the assay on EKVX NSCLC it was 49.9 µM; in the assay with DLD-1 colon it was 25.3 µM. For the same compound, the TGI in the assay on DMS 273 small cell lung worked out at 160 µM; with A549 NSCLC it was 188 µM.
